Test results as given in PMC10436263 (2023).

Key:
Assay in all cases: X-ray crystallography
[1] = system: d(5′-CGCGAATTCGCG-3′)2 (AATT) (DNA, duplex) CGCGAATTCGCG
[2] = system: d(5′-CGCAAATTTGCG-3′)2 (AAATTT, A3T3) (DNA, duplex) CGCAAATTTGCG; details: crystallization details in Table S1 (not seen); 1.54 Å
[3] = system: d(5′-CGCGATATCGCG-3′)2 (ATAT) (DNA, duplex) CGCGATATCGCG; details: crystallization details in Table S1 (not seen); 1.63 Å
[4] = system: d(5′-CGCAAAAAAGCG-3′/5′-CGCTTTTTTGCG-3′) (A6) (DNA, duplex) CGCAAAAAAGCG/CGCTTTTTTGCG; details: crystallization details in Table S1 (not seen); two orientations (8F1S, 8F1V); 2.1 Å
[5] = system: d(5′-CGCGAAAACGCG-3′/5′-CGCGTTTTCGCG-3′) (A4) (DNA, duplex) CGCGAAAACGCG/CGCGTTTTCGCG; details: crystallization details in Table S1 (not seen); 1.55 Å
[6] = system: d(5′-GCTGGATATATCCAGC-3′)2 (ATATAT) (DNA, duplex) GCTGGATATATCCAGC; details: 600 mM CaCl2; 10 mM HEPES pH 8.6, 40% PEG200 (well); 1.50 Å

Measured: binding

N=C(N)c1ccc(-c2ccc3nc(-c4ccc(C(=N)N)cc4)[nH]c3c2)cc1
yes: [1]; 20 mM MgCl2, 80 mM NaCl, 12 mM KCl, 40 mM sodium cacodylate pH 6.0, 12 mM spermine, 10% MPD, two orientations (8EC1 I, 8ED6 II) | [2] | [3] | [4] | [5] | [6]

N=C(N)c1ccc(-c2ccc3cc(-c4ccc(C(=N)N)cc4)[nH]c3c2)cc1
yes: [1]; crystallization details in Table S1 (not seen)
